The values below are quoted from earlier work in publication PMC9915632 (International Journal of Molecular Sciences, 2023).

Non-standard residues stand in square brackets, D forms with d. Orn = NCCC[C@H](N)C(=O)O

The conditions of series [1]: ref [22], cited from earlier work.
A further series has as its system SARS-CoV-2. To be noted: in vitro; ref [16]; cited from earlier work.
The conditions of series [2]: ref [15]; cited from earlier work.

Consider “For-Val-Gly-D-Leu-Ala-D-Val-Val-D-Val-Trp-D-Leu-Trp-D-Leu-Trp-D-Leu-Trp-Gly-ol [Gramicidin D, FDA-approved antimicrobial peptide drug, PubChem CID 45267103]”, for which, in series [1] (limits use to topical application), the hemolysis entry was “hemolytic side effect”. Further, in series [1] (topical antibiotic), the tolerability result is reported as “well-tolerated antibiotic”.
With “cyclo(L[dF]PV[Orn]L[dF]PV[Orn]) [Gramicidin S]”, the anti-SARS-CoV-2 activity result in the series with SARS-CoV-2 is “anti-SARS-CoV-2 activity in vitro”. Further, the “antibacterial and fungicidal activity” value in series [2] was “potent antibacterial and fungicidal activity”.
